From PubChem BioAssay (NCI)
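Tested at 5 concentrations; 48 h exposure; 96-well plates; endpoints linearly interpolated, else capped at highest concentration. TGI marks complete inhibition of growth.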

How the values were obtained:
Assay in all cases: DTP human tumour cell line panel, 48 h
COLO 205 colon = tested on: COLO 205 colon
SN12C renal = tested on: SN12C renal
IGROV1 ovarian = tested on: IGROV1 ovarian
M19-MEL melanoma = tested on: M19-MEL melanoma
SK-OV-3 ovarian = tested on: SK-OV-3 ovarian
SK-MEL-5 melanoma = tested on: SK-MEL-5 melanoma
LXFL 529 NSCLC = tested on: LXFL 529 NSCLC
K-562 leukemia = tested on: K-562 leukemia
KM12 colon = tested on: KM12 colon
NCI-H23 lung = tested on: NCI-H23 lung
DMS 273 small cell lung = tested on: DMS 273 small cell lung
HOP-92 NSCLC = tested on: HOP-92 NSCLC
NCI-H460 lung = tested on: NCI-H460 lung
UACC-62 melanoma = tested on: UACC-62 melanoma
HT29 colon = tested on: HT29 colon
NCI-H522 lung = tested on: NCI-H522 lung
RXF 393 renal = tested on: RXF 393 renal
HCT-116 colon = tested on: HCT-116 colon
HCT-15 colon = tested on: HCT-15 colon
UACC-257 melanoma = tested on: UACC-257 melanoma
SK-MEL-28 melanoma = tested on: SK-MEL-28 melanoma
HOP-62 NSCLC = tested on: HOP-62 NSCLC
MOLT-4 leukemia = tested on: MOLT-4 leukemia
ACHN renal = tested on: ACHN renal
HCC-2998 colon = tested on: HCC-2998 colon
CAKI-1 renal = tested on: CAKI-1 renal
A549 NSCLC = tested on: A549 NSCLC
SF-268 CNS = tested on: SF-268 CNS
SNB-75 CNS = tested on: SNB-75 CNS
TK-10 renal = tested on: TK-10 renal
UO-31 renal = tested on: UO-31 renal
SF-539 CNS = tested on: SF-539 CNS
SR leukemia = tested on: SR leukemia
MALME-3M melanoma = tested on: MALME-3M melanoma
OVCAR-5 ovarian = tested on: OVCAR-5 ovarian
U251 CNS = tested on: U251 CNS
OVCAR-3 ovarian = tested on: OVCAR-3 ovarian
RPMI-8226 leukemia = tested on: RPMI-8226 leukemia
NCI-H226 lung = tested on: NCI-H226 lung
M14 melanoma = tested on: M14 melanoma
SW-620 colon = tested on: SW-620 colon
LOX IMVI melanoma = tested on: LOX IMVI melanoma
CCRF-CEM leukemia = tested on: CCRF-CEM leukemia
786-0 renal = tested on: 786-0 renal
DMS 114 small cell lung = tested on: DMS 114 small cell lung
SK-MEL-2 melanoma = tested on: SK-MEL-2 melanoma
SNB-19 CNS = tested on: SNB-19 CNS
DLD-1 colon = tested on: DLD-1 colon
XF 498 CNS = tested on: XF 498 CNS
HL-60(TB) leukemia = tested on: HL-60(TB) leukemia
OVCAR-8 ovarian = tested on: OVCAR-8 ovarian
KM20L2 colon = tested on: KM20L2 colon
EKVX NSCLC = tested on: EKVX NSCLC
SNB-78 CNS = tested on: SNB-78 CNS
SF-295 CNS = tested on: SF-295 CNS
OVCAR-4 ovarian = tested on: OVCAR-4 ovarian
A498 renal = tested on: A498 renal

Measured: TGI

O=c1nc2n(c3nsnc13)CCO2
not listed: SNB-78 CNS | SF-295 CNS | OVCAR-4 ovarian | A498 renal
> 100 µM: all other assays above

C[C@]12CC[C@H](O)CC1=CC[C@@H]1C2CC[C@]2(C)NC(=O)C(C#N)CC12 (some centres not stated)
not listed: COLO 205 colon | SN12C renal | HOP-92 NSCLC | NCI-H522 lung | SF-268 CNS | SR leukemia | LOX IMVI melanoma | SNB-19 CNS
> 100 µM: all other assays above
